Data: patent US4497809A, “Cephalosporin derivatives” (Takeda Chemical Industries, Ltd., priority 1982, dated 1985)

Experiments:
[1] = in vivo; parameters: species or system mouse (male SLC-ICR mice); conditions: mouse; for Bioavailability / AUC (area under plasma-concentration curve of non-ester form, 0 to 2 hr): 100 mg/kg; for AUC (area under plasma-concentration curve of non-ester form, 0 to 2 hr): po
Description: Test compounds: compounds obtained in examples 6, 8, 10, 13, 14, 16, 21, 23 and compound for control: pivaloyloxymethyl 7β-[2-(2-aminothiazol-4-yl)acetamido]-3-[[[1-(2-dimethylaminoethyl)-1H-tetrazol-5-yl]thio]methyl]-ceph-3-em-4-carboxylate (This will be referred to simply "compound A" hereinafter).
Male SLC-ICR mice (4 weeks old) were starved but under free access to drinking water for 16-18 hr. period to the experiments. The test compound was administered orally by intubation as an aqueous solution with 2.5 equimolar of tartaric acid at a dose of 100 mg/kg as non-ester form of the Compound I, to a group of four mice. […] The concentration of the non-ester form of the Compound I in the plasma was measured by the cylinder-plate method using Proteus mirabilis ATCC 21100 as an assay organism.
Control test: an aqueous solution of non-ester form of the Compound I in an amount of 10 ml water/Kg mouse body weight, was subcutaneously applied and AUC was calculated in the same manner as above.
Area under plasma-concentration curve (AUC) for 0 to 2 hr. after
administration was calculated by the trapezoidal rule.

[2] = tested on: gram-positive bacteria (e.g., Staphylococcus aureus); experiment: Antibacterial activity against gram-positive bacteria; type: cell-based; conditions: in words
[3] = tested on: gram-negative bacteria (e.g., Escherichia coli, Klebsiella pneumonia, Proteus vulgaris, Proteus mirabilis, Proteus morganii); experiment: Antibacterial activity against gram-negative bacteria; type: cell-based; conditions: in words

SMILES	Bioavailability ([1]; 120 min) [%]	AUC (area under plasma-concentration curve of non-ester form, 0 to 2 hr) ([1]; 120 min) [ng·h/mL]	antibacterial activity against gram-positive bacteria [2]	antibacterial activity against gram-negative bacteria [3]	AUC at 2 h ([1]; sc) [ng·h/mL]	Bioavailability, control ([1]; sc, 120 min) [%]
CN(C)CCn1nnnc1SCC1=C(C(=O)OCOC(=O)C(C)(C)C)N2C(=O)[C@@H](NC(=O)Cc3csc(N)n3)[C@H]2SC1 [Compound A, pivaloyloxymethyl 7β-[2-(2-aminothiazol-4-yl)acetamido]-3-[[[1-(2-dimethylaminoethyl)-1H-tetrazol-5-yl]thio]methyl]-ceph-3-em-4-carboxylate, reference compound]	41.8	–	–	–	–	–
CCCCCC(=O)OC(C)OC(=O)C1=C(CSc2nnnn2CCN(C)C)CS[C@@H]2[C@H](NC(=O)Cc3csc(N)n3)C(=O)N12 (stereo partly drawn) [Example 6, 1-(n-hexanoyloxy)ethyl 7β-[2-(2-aminoethiazol-4-yl)acetamido]-3-[[[1-(2-dimethylaminoethyl)-1H-tetrazol-5-yl]thio]methyl]ceph-3-em-4-carboxylate]	67.5	26200	–	–	–	–
CC(C)CCC(=O)OC(C)OC(=O)C1=C(CSc2nnnn2CCN(C)C)CS[C@@H]2[C@H](NC(=O)Cc3csc(N)n3)C(=O)N12 (stereo partly drawn) [Example 8, 1-(4-methylpentanoyloxy)ethyl 7β-[2-(2-aminothiazol-4-yl)acetamido]-3-[[[1-(2-dimethylaminoethyl)-1H-tetrazol-5-yl]thio]methyl]ceph-3-em-4-carboxylate]	52.8	20500	–	–	–	–
CCC(C)CC(=O)OC(C)OC(=O)C1=C(CSc2nnnn2CCN(C)C)CS[C@@H]2[C@H](NC(=O)Cc3csc(N)n3)C(=O)N12 (stereo partly drawn) [Example 10, 1-(3-methylpentanoyloxy)ethyl 7β-[2-(2-aminothiazol-4-yl)acetamido]-3-[[[1-(2-dimethylaminoethyl)-1H-tetrazol-5-yl]-thio]methyl]ceph-3-em-4-carboxylate]	93.2	36200	–	–	–	–
CCCCCCCC(=O)OC(C)OC(=O)C1=C(CSc2nnnn2CCN(C)C)CS[C@@H]2[C@H](NC(=O)Cc3csc(N)n3)C(=O)N12 (stereo partly drawn) [Example 13, 1-(n-octanoyloxy)ethyl 7β-[2-(2-aminothiazol-4-yl)acetamido]-3-[[[1-(2-dimethylaminoethyl)-1H-tetrazol-5-yl]thio]methyl]ceph-3-em-4-carboxylate]	60.6	23500	–	–	–	–
CCCC(CCC)C(=O)OC(C)OC(=O)C1=C(CSc2nnnn2CCN(C)C)CS[C@@H]2[C@H](NC(=O)Cc3csc(N)n3)C(=O)N12 (stereo partly drawn) [Example 14, 1-(2-n-propylpentanoyloxy)ethyl 7β-[2-(2-aminothiazol-4-yl)acetamido]-3-[[[1-(2-dimethylaminoethyl)-1H-tetrazol-5-yl)thio]methyl]ceph-3-em-4-carboxylate]	66.0	25600	–	–	–	–
CCCCCC(=O)OC(CC)OC(=O)C1=C(CSc2nnnn2CCN(C)C)CS[C@@H]2[C@H](NC(=O)Cc3csc(N)n3)C(=O)N12 (stereo partly drawn) [Example 16, 1-(n-hexanoyloxy)propyl 7β-[2-(2-aminothiazol-4-yl)acetamido]-3-[[[1-(2-dimethylaminoethyl)-1H-tetrazol-5-yl]thio]methyl]ceph-3-em-4-carboxylate]	65.0	25200	–	–	–	–
CCC(CC)C(=O)OC(C)OC(=O)C1=C(CSc2nnnn2CCN(C)C)CS[C@@H]2[C@H](NC(=O)Cc3csc(N)n3)C(=O)N12 (stereo partly drawn) [Example 21, 1-(2-ethylbutyryloxy)ethyl 7β-[2-(2-aminothiazol-4-yl)acetamido]-3-[[[1-(2-dimethylaminoethyl)-1H-tetrazol-5-yl]thio]methyl]ceph-3-em-4-carboxylate]	100.0	38800	–	–	–	–
CCC(CC)CC(=O)OC(C)OC(=O)C1=C(CSc2nnnn2CCN(C)C)CS[C@@H]2[C@H](NC(=O)Cc3csc(N)n3)C(=O)N12 (stereo partly drawn) [Example 23, 1-(3-ethylpentanoyloxy)ethyl 7β-[2-(2-aminothiazol-4-yl)acetamido]-3-[[[1-(2-dimethylaminoethyl)-1H-tetrazol-5-yl]thio]methyl]ceph-3-em-4-carboxylate]	78.2	30300	–	–	–	–
CN(C)CCn1nnnc1SCC1=C(C(=O)O)N2C(=O)[C@@H](NC(=O)Cc3csc(N)n3)[C@H]2SC1 [non-ester form of Compound I, 7β-[2-(2-aminothiazol-4-yl)acetamido]-3-[[[1-(2-dimethylaminoethyl)-1H-tetrazol-5-yl]thio]methyl]ceph-3-em-4-carboxylic acid, reference compound]	–	–	excellent antibacterial activity	excellent antibacterial activity	38800	100
